Data as given in patent US7838508B2, “4′-thio-L-xyloy furanosyl nucleosides, precursors thereof, preparation and use thereof” (priority 2000, dated 2010).
Where two headings read alike, the source gives them in different places.

Columns and labels:
DLD-1 (colon) = assay: Cell culture cytotoxicity, DLD-1 (colon); format: cell-based, human
Procedure: (§1) The cell culture cytotoxicity of compounds of the present invention was determined against several different human cancel cell lines (see Table 1 below) and for antiviral activity (see Table 2 below).

SNB-7 (CNS) = assay: Cell culture cytotoxicity, SNB-7 (CNS); format: cell-based, human
Procedure: as §1

SK-MEL-28 (melanoma) = assay: Cell culture cytotoxicity, SK-MEL-28 (melanoma); format: cell-based, human
Procedure: as §1

CCRF-CEM (leukemia) = assay: Cell culture cytotoxicity, CCRF-CEM (leukemia); format: cell-based, human; conditions: read-out: Cytotoxicity IC50, CCRF-CEM (leukemia)
Procedure: as §1

NCI-H23 (lung) = assay: Cell culture cytotoxicity, NCI-H23 (lung); format: cell-based, human
Procedure: as §1

CAKI-1 (renal) = assay: Cell culture cytotoxicity, CAKI-1 (renal); format: cell-based, human
Procedure: as §1

[1] = Toxicity (cell viability) in antiviral (CMV) test; format: cell-based; conditions: Antiviral (CMV) data; read-out: TC50: Toxic Concentration at 50% cell viability
Procedure: as §1

CMV = assay: Antiviral (CMV) activity; format: cell-based; conditions: for IC50: Human betaherpesvirus 5, Antiviral (CMV) data, read-out: IC50: 50% Inhibitory Concentration of CMV; for TI: Therapeutic Index (TC50/IC50): TC50/IC50, CMV
Procedure: as §1

[2] = DLD-1 human colon cancer cell line, read-out: Cytotoxicity IC50, DLD-1 (colon)
[3] = SNB-7 human CNS cancer cell line, read-out: Cytotoxicity IC50, SNB-7 (CNS)
[4] = SK-MEL-28 human melanoma cell line, read-out: Cytotoxicity IC50, SK-MEL-28 (melanoma)
[5] = CCRF-CEM human leukemia cell line
[6] = NCI-H23 human lung cancer cell line, read-out: Cytotoxicity IC50, NCI-H23 (lung)
[7] = CAKI-1 human renal cancer cell line, read-out: Cytotoxicity IC50, CAKI-1 (renal)

| Compound | IC50 (DLD-1 (colon); [2]) | IC50 (SNB-7 (CNS); [3]) | IC50 (SK-MEL-28 (melanoma); [4]) | IC50 (CCRF-CEM (leukemia); [5]) | IC50 (NCI-H23 (lung); [6]) | IC50 (CAKI-1 (renal); [7]) | CC50 [1] | IC50 (CMV) | TI: Therapeutic Index (TC50/IC50) (CMV) | IC50 (DLD-1 (colon); Homo sapiens, DLD-1, read-out: Cytotoxicity IC50, DLD-1 (colon)) | IC50 (SNB-7 (CNS); Homo sapiens, SNB-7, read-out: Cytotoxicity IC50, SNB-7 (CNS)) | IC50 (SK-MEL-28 (melanoma); Homo sapiens, SK-MEL-28, read-out: Cytotoxicity IC50, SK-MEL-28 (melanoma)) | IC50 (CCRF-CEM (leukemia); Homo sapiens, CCRF-CEM) | IC50 (NCI-H23 (lung); Homo sapiens, NCI-H23, read-out: Cytotoxicity IC50, NCI-H23 (lung)) | IC50 (CAKI-1 (renal); Homo sapiens, CAKI-1, read-out: Cytotoxicity IC50, CAKI-1 (renal)) |
| --- | --- | --- | --- | --- | --- | --- | --- | --- | --- | --- | --- | --- | --- | --- | --- |
| 1-(4′-thio-α,β-L-Xylofuranosyl)thymine [Compound 17αβ] | > 100 µM | > 100 µM | > 100 µM | > 100 µM | > 100 µM | > 100 µM |  |  |  |  |  |  |  |  |  |
| Nc1nc(Cl)nc2c1ncn2[C@@H]1S[C@@H](CO)[C@@H](O)[C@@H]1O [Compound 9α, 2-Chloro-9-(4-thio-α-L-xylofuranosyl)adenine] | > 100 µM | > 100 µM | > 100 µM | > 100 µM | > 100 µM | > 100 µM |  |  |  |  |  |  |  |  |  |
| Nc1nc(Cl)nc2c1ncn2[C@H]1S[C@@H](CO)[C@@H](O)[C@@H]1O [Compound 9β, 2-Chloro-9-(4-thio-β-L-xylofuranosyl)adenine] | > 100 µM | > 100 µM | > 100 µM | > 100 µM | > 100 µM | > 100 µM |  |  |  |  |  |  |  |  |  |
| Nc1nc(N)c2ncn([C@@H]3S[C@@H](CO)[C@@H](O)[C@@H]3O)c2n1 [Compound 12α, 9-(4-Thio-α-L-Xylofuranosyl)-9H-purine-2,6-diamine] | > 100 µM | > 100 µM | > 100 µM | > 100 µM | > 100 µM | > 100 µM | > 10 µM | 0.051 µM | >196.1 |  |  |  |  |  |  |
| Nc1nc(N)c2ncn([C@H]3S[C@@H](CO)[C@@H](O)[C@@H]3O)c2n1 [Compound 12β, 9-(4-Thio-β-L-Xylofuranosyl)-9H-purine-2,6-diamine] | > 100 µM | > 100 µM | > 100 µM | > 100 µM | > 100 µM | > 100 µM |  |  |  |  |  |  |  |  |  |
| Nc1nc2c(ncn2[C@H]2S[C@@H](CO)[C@@H](O)[C@@H]2O)c(=O)[nH]1 [Compound 13, 9-(4-Thio-β-L-xylofuranosyl)guanine] | > 100 µM | > 100 µM | > 100 µM | > 100 µM | > 100 µM | > 100 µM |  |  |  |  |  |  |  |  |  |
| Nc1ccn([C@@H]2S[C@@H](CO)[C@@H](O)[C@@H]2O)c(=O)n1 [Compound 15α, 1-(4-thio-α-L-Xylofuranosyl)cytosine] | > 100 µM | > 100 µM | > 100 µM | 8 µM | > 100 µM | > 100 µM | > 10 µM | 0.026 µM | >384.6 |  |  |  |  |  |  |
| Nc1ccn([C@H]2S[C@@H](CO)[C@@H](O)[C@@H]2O)c(=O)n1 [Compound 15β, 1-(4-thio-β-L-Xylofuranosyl)cytosine] | > 100 µM | 90 µM | > 100 µM | 11 µM | > 100 µM | > 100 µM | > 10 µM | 0.022 µM | >454.5 |  |  |  |  |  |  |
| O=c1ccn(C2S[C@@H](CO)[C@@H](O)[C@@H]2O)c(=O)[nH]1 (stereo partly drawn) [Compound 19αβ, 1-(4-thioα,β-L-Xylofuranosyl)uracil] |  |  |  |  |  |  |  |  |  | > 100 µM | > 100 µM | > 100 µM | > 100 µM | > 100 µM | > 100 µM |
| Nc1nc(O)c2ncn(COC(CO)CO)c2n1 [Ganciclovir, reference compound] |  |  |  |  |  |  | > 10 µM | 8.6 µM | >11.6 |  |  |  |  |  |  |
